Reference: US20260191807A1, “COMPOSITIONS AND METHODS FOR TREATMENT OF PRADER-WILLI SYNDROME” (ERX Pharmaceuticals Inc., priority 2022, published 2026)

Legend:
Format in all cases: in vivo
C57BL/6-Magel2 mice [1] = assay: Body weights of C57BL/6 Magel2 mice during daily treatment; conditions: 0.2 mg/kg IP QD; for Body weights (expressed as a percentage of day-1 weight) / Body weights (in grams): mean; for body weight lost from day 1 to day 21: vehicle +2.7%
Experimental: (§1) In the study disclosed herein, celastrol at was administered intraperitoneally using a 30G needle at a dose of 0.2 mg/kg to five female Magel2 homozygous mice (−/−) and four male mice heterozygous for Magel2 (−/+). In addition, vehicle was administered to four male mice heterozygous for Magel2 (−/+) for 21 days.
(§2) C57BL/6-Magel2 mice were bred for purpose from cryo recovery by Jackson Labs (Bar Harbor, ME) and arrived at the testing facility at age 8 weeks.
(§3) All treatment volumes were 10 mL/kg. Utilizing the art-recognized nestlet shredding mouse model, the dose was administered by gavage (as capsule dosing is challenging in mice). Celastrol and the vehicle control were administered intraperitoneally using a 30G needle. All treatments were administered daily in the afternoon at 17:00 h, 1 hour before dark cycle from Day 1 to end of dosing.
(§4) Celastrol was dissolved in 50% Solutol/50% DMAC. The resulting stock solution aliquoted and stored at −80° C. until treatment day. On the day of treatment an aliquot of the stock solution was thawed and diluted 1:20 with saline to obtain the desired dosing solution strength in 5%
Mouse body weights were recorded from an Ohaus model CS 200 balance. Mice were weighed daily on Day 1 to Day 21. Body weight changes are expressed as grams and percent of the initial body weight (on Day 1, when treatments began).

C57BL/6-Magel2 mice [2] = assay: Nestlet shredding test in C57BL/6 Magel2 mice; conditions: 0.2 mg/kg IP QD, mean
Experimental: The nestlet shredding behavioral effects of celastrol was evaluated in Magel2 knockout mice. Magel2 knockout has been used as a model of Prader-Willi syndrome to assess potential pharmacological treatments effect on behavior (Meziane 2015). Without wishing to be bound by theory, the Magel2 gene is a major causative gene of phenotypes in both Prader-Willi syndrome and autism (Schraff 2013). Further, nestlet shredding has been used to assess anxiety and compulsive behaviors in mouse models (Angoa-Perez 2013 and Dorniger 2020) and has been used to characterize clinically effective treatments for Prader-Willi syndrome (Fagen 2018 and McCandless 2017).
as §1, §2, §3, §4
The nestlet shredding test is an art-recognized animal model for human repetitive, anxiety, and/or compulsive behaviors. In the nestlet shredding test, a nestlet comprised of pulped fiber, e.g., cotton fiber, is preweighed and placed on top of cage bedding and the amount of the nestlet remaining intact after a test session of pre-determined time is evaluated.
Nestlet shredding was determined on day 1, day 11, and day 21 by placing a fresh nestlet prior to the dark cycle and measuring the weight of the remaining nestlet at 12 and 24 hours on an Ohaus model CS 200 balance. Percent shredding was calculated based on the initial nestlet weight.

Magel2 mice = assay: Deaths and clinical signs, Magel2 study; conditions: 0.2 mg/kg IP for 21 days
Experimental: as §1

[3] = Day 1, Magel2 (−/+) heterozygous male mice
[4] = Day 1, Magel2 (−/−) homozygous female mice
[5] = Day 2, Magel2 (−/+) heterozygous male mice
[6] = Day 2, Magel2 (−/−) homozygous female mice
[7] = Day 4, Magel2 (−/+) heterozygous male mice
[8] = Day 4, Magel2 (−/−) homozygous female mice
[9] = Day 6, Magel2 (−/+) heterozygous male mice
[10] = Day 6, Magel2 (−/−) homozygous female mice
[11] = Day 8, Magel2 (−/+) heterozygous male mice
[12] = Day 8, Magel2 (−/−) homozygous female mice
[13] = Day 10, Magel2 (−/+) heterozygous male mice
[14] = Day 10, Magel2 (−/−) homozygous female mice
[15] = Day 11, Magel2 (−/+) heterozygous male mice
[16] = Day 11, Magel2 (−/−) homozygous female mice
[17] = Day 13, Magel2 (−/+) heterozygous male mice
[18] = Day 13, Magel2 (−/−) homozygous female mice
[19] = Day 15, Magel2 (−/+) heterozygous male mice
[20] = Day 15, Magel2 (−/−) homozygous female mice
[21] = Day 17, Magel2 (−/+) heterozygous male mice
[22] = Day 17, Magel2 (−/−) homozygous female mice
[23] = Day 18, Magel2 (−/+) heterozygous male mice
[24] = Day 18, Magel2 (−/−) homozygous female mice
[25] = Day 20, Magel2 (−/+) heterozygous male mice
[26] = Day 20, Magel2 (−/−) homozygous female mice
[27] = Day 21, Magel2 (−/+) heterozygous male mice
[28] = Day 21, Magel2 (−/−) homozygous female mice

## CC1=C(O)C(=O)C=C2C1=CC=C1[C@@]2(C)CC[C@@]2(C)[C@@H]3C[C@](C)(C(=O)O)CC[C@]3(C)CC[C@]12C [Celastrol]
C57BL/6-Magel2 mice [1]; [3]
  Body weights (expressed as a percentage of day-1 weight): 100.0%
  Body weights (in grams): 26.6 grams
C57BL/6-Magel2 mice [1]; [4]
  Body weights (expressed as a percentage of day-1 weight): 100.0%
  Body weights (in grams): 20.5 grams
C57BL/6-Magel2 mice [1]; [5]
  Body weights (expressed as a percentage of day-1 weight): 99.6%
  Body weights (in grams): 26.5 grams
C57BL/6-Magel2 mice [1]; [6]
  Body weights (expressed as a percentage of day-1 weight): 101.2%
  Body weights (in grams): 20.8 grams
C57BL/6-Magel2 mice [1]; [7]
  Body weights (expressed as a percentage of day-1 weight): 101.1%
  Body weights (in grams): 26.9 grams
C57BL/6-Magel2 mice [1]; [8]
  Body weights (expressed as a percentage of day-1 weight): 105.6%
  Body weights (in grams): 21.7 grams
C57BL/6-Magel2 mice [1]; [9]
  Body weights (expressed as a percentage of day-1 weight): 99.4%
  Body weights (in grams): 26.4 grams
C57BL/6-Magel2 mice [1]; [10]
  Body weights (expressed as a percentage of day-1 weight): 107.1%
  Body weights (in grams): 22.0 grams
C57BL/6-Magel2 mice [1]; [11]
  Body weights (expressed as a percentage of day-1 weight): 101.3%
  Body weights (in grams): 26.9 grams
C57BL/6-Magel2 mice [1]; [12]
  Body weights (expressed as a percentage of day-1 weight): 106.2%
  Body weights (in grams): 21.8 grams
C57BL/6-Magel2 mice [1]; [13]
  Body weights (expressed as a percentage of day-1 weight): 96.4%
  Body weights (in grams): 25.6 grams
C57BL/6-Magel2 mice [1]; [14]
  Body weights (expressed as a percentage of day-1 weight): 100.9%
  Body weights (in grams): 20.7 grams
C57BL/6-Magel2 mice [1]; [15]
  Body weights (expressed as a percentage of day-1 weight): 94.4%
  Body weights (in grams): 25.1 grams
C57BL/6-Magel2 mice [1]; [16]
  Body weights (expressed as a percentage of day-1 weight): 95.6%
  Body weights (in grams): 19.6 grams
C57BL/6-Magel2 mice [1]; [17]
  Body weights (expressed as a percentage of day-1 weight): 94.2%
  Body weights (in grams): 25.0 grams
C57BL/6-Magel2 mice [1]; [18]
  Body weights (expressed as a percentage of day-1 weight): 93.5%
  Body weights (in grams): 19.2 grams
C57BL/6-Magel2 mice [1]; [19]
  Body weights (expressed as a percentage of day-1 weight): 93.9%
  Body weights (in grams): 25.0 grams
C57BL/6-Magel2 mice [1]; [20]
  Body weights (expressed as a percentage of day-1 weight): 95.0%
  Body weights (in grams): 19.5 grams
C57BL/6-Magel2 mice [1]; [21]
  Body weights (expressed as a percentage of day-1 weight): 85.0%
  Body weights (in grams): 22.6 grams
C57BL/6-Magel2 mice [1]; [22]
  Body weights (expressed as a percentage of day-1 weight): 85.3%
  Body weights (in grams): 17.5 grams
C57BL/6-Magel2 mice [1]; [23]
  Body weights (expressed as a percentage of day-1 weight): 83.0%
  Body weights (in grams): 22.1 grams
C57BL/6-Magel2 mice [1]; [24]
  Body weights (expressed as a percentage of day-1 weight): 85.6%
  Body weights (in grams): 17.6 grams
C57BL/6-Magel2 mice [1]; [25]
  Body weights (expressed as a percentage of day-1 weight): 84.5%
  Body weights (in grams): 22.5 grams
C57BL/6-Magel2 mice [1]; [26]
  Body weights (expressed as a percentage of day-1 weight): 88.8%
  Body weights (in grams): 18.3 grams
C57BL/6-Magel2 mice [1]; [27]
  Body weights (expressed as a percentage of day-1 weight): 83.8%
  Body weights (in grams): 22.3 grams
C57BL/6-Magel2 mice [1]; [28]
  Body weights (expressed as a percentage of day-1 weight): 89.6%
  Body weights (in grams): 18.4 grams
C57BL/6-Magel2 mice [1]; female homozygous Magel2 (−/−) mice
  body weight lost from day 1 to day 21: 10.4%
C57BL/6-Magel2 mice [1]; male heterozygous Magel2 (−/+) mice
  body weight lost from day 1 to day 21: 16.2%
C57BL/6-Magel2 mice [2]; Day 1, 12 hour, Magel2 (−/+) heterozygous male mice
  Nestlet Shredding (percent of nestlet shredded): 100.0%
C57BL/6-Magel2 mice [2]; Day 1, 12 hour, Magel2 (−/−) homozygous female mice
  Nestlet Shredding (percent of nestlet shredded): 100.0%
C57BL/6-Magel2 mice [2]; Day 11, 12 hour, Magel2 (−/+) heterozygous male mice
  Nestlet Shredding (percent of nestlet shredded): 100.0%
C57BL/6-Magel2 mice [2]; Day 11, 12 hour, Magel2 (−/−) homozygous female mice
  Nestlet Shredding (percent of nestlet shredded): 54.7%
C57BL/6-Magel2 mice [2]; Day 11, 24 hour, Magel2 (−/+) heterozygous male mice
  Nestlet Shredding (percent of nestlet shredded): 100.0%
C57BL/6-Magel2 mice [2]; Day 11, 24 hour, Magel2 (−/−) homozygous female mice
  Nestlet Shredding (percent of nestlet shredded): 93.5%
C57BL/6-Magel2 mice [2]; Day 21, 12 hour, Magel2 (−/+) heterozygous male mice
  Nestlet Shredding (percent of nestlet shredded): 38.3%
C57BL/6-Magel2 mice [2]; Day 21, 12 hour, Magel2 (−/−) homozygous female mice
  Nestlet Shredding (percent of nestlet shredded): 54.7%
C57BL/6-Magel2 mice [2]; Day 21, 24 hour, Magel2 (−/+) heterozygous male mice
  Nestlet Shredding (percent of nestlet shredded): 44.6%
C57BL/6-Magel2 mice [2]; Day 21, 24 hour, Magel2 (−/−) homozygous female mice
  Nestlet Shredding (percent of nestlet shredded): 62.3%
Magel2 mice
  deaths or abnormal clinical signs: No deaths or abnormal clinical signs
